Results from the supplement of paper PMC13380429.

Assays:
[1] = test system: A549-ACE2 infected with SARS-CoV-2; test: morphology score (similarity to uninfected cells); higher = more like uninfected cells; conditions: 24 h
Vero E6 [2] = test: cell viability relative to DMSO; higher = less toxic; conditions: 72 h
U2OS [3] = test: as above; conditions: 72 h
Calu-3 [4] = test: as above; conditions: 72 h
HepG2 [5] = test: as above; conditions: 72 h
Caco-2 [6] = test: as above; conditions: 72 h
[7] = test system: A549-ACE2 infected with SARS-CoV-2; test: SARS-CoV-2 infection rate relative to DMSO; higher = more infection; conditions: 24 h
[8] = test system: A549-ACE2 infected with SARS-CoV-2; test: cell count relative to DMSO; higher = less toxic; conditions: 24 h
Vero E6 [9] = test: drug sensitivity score (DSS) for viability; higher = more toxic; extreme values may be limits of the assay; conditions: 72 h
U2OS [10] = test: as above; conditions: 72 h
Calu-3 [11] = test: as above; conditions: 72 h
HepG2 [12] = test: as above; conditions: 72 h
Caco-2 [13] = test: as above; conditions: 72 h
A549-ACE2 = test: drug-induced phospholipidosis relative to tamoxifen; higher = more phospholipidosis
U2OS [14] = test: relative viability EC50 (midpoint between 100% and the lowest measured viability); higher = less toxic; conditions: 72 h
Calu-3 [15] = test: as above; conditions: 72 h
HepG2 [16] = test: as above; conditions: 72 h
Caco-2 [17] = test: as above; conditions: 72 h
Vero E6 [18] = test: as above; conditions: 72 h

Nc1nc(O)c2[nH]nnc2n1 [azaguanine-8]
Conditions | SARS-CoV-2 infection rate, [7] [%] | cell count, [8] [%] | cell viability, Caco-2 [6] [%] | cell viability, Calu-3 [4] [%] | cell viability, HepG2 [5] [%] | cell viability, U2OS [3] [%] | cell viability, Vero E6 [2] [%] | morphology score, [1]
1 nM | – | – | 104 | 94.4 | 102 | 102 | 104 | –
10 nM | – | – | 105 | 94 | 100 | 95.4 | 103 | –
0.1 µM | 106 | 102 | – | – | – | – | – | 0.12
100 nM | – | – | 93.5 | 89.5 | 100 | 102 | 105 | –
0.3 µM | 91 | 104 | – | – | – | – | – | 0.27
1 µM | 96 | 102 | – | – | – | – | – | 0.08
1000 nM | – | – | 91.9 | 89.5 | 106 | 97.6 | 103 | –
3 µM | 94 | 102 | – | – | – | – | – | 0.33
10000 nM | – | – | 91.1 | 81.2 | 29.6 | 89.2 | 52 | –

Conditions | drug sensitivity score | relative viability EC50 [nM]
Caco-2 [13] | 0 | –
Caco-2 [17] | – | > 10000
Calu-3 [11] | 1.4 | –
Calu-3 [15] | – | > 10000
HepG2 [12] | 3.4 | –
HepG2 [16] | – | 3600
U2OS [10] | 0.1 | –
U2OS [14] | – | > 10000
Vero E6 [9] | 2.3 | –

drug-induced phospholipidosis [%], A549-ACE2
Conditions | 0.3 µM | 0.833333 µM | 3.33333 µM | 6.66667 µM | 10 µM | 30 µM
24 h | 2.81 | -0.65 | -1.26 | -0.07 | 3.53 | 16.6
48 h | 3.95 | -1.52 | -4.45 | -3.51 | -4.77 | –
72 h | 5.19 | -2.08 | -1.89 | -4.08 | -4.93 | –

COc1cc2ncnc(Nc3cccc(Br)c3)c2cc1OC
Conditions | SARS-CoV-2 infection rate, [7] [%] | cell count, [8] [%] | cell viability, Caco-2 [6] [%] | cell viability, Calu-3 [4] [%] | cell viability, HepG2 [5] [%] | cell viability, U2OS [3] [%] | cell viability, Vero E6 [2] [%] | morphology score, [1]
1 nM | – | – | 88.5 | 102 | 103 | 93.7 | 101 | –
10 nM | – | – | 109 | 84.4 | 86.4 | 98.4 | 84.6 | –
100 nM | – | – | 95.1 | 96.5 | 92.6 | 97.6 | 102 | –
0.3 µM | 107 | 87 | – | – | – | – | – | -0.21
1000 nM | – | – | 69.6 | 40.4 | 92.1 | 93.2 | 79.7 | –
3 µM | 86 | 105 | – | – | – | – | – | 0.38
10 µM | 33 | 92 | – | – | – | – | – | 0.64
10000 nM | – | – | 47.2 | 23.6 | 71.6 | 72.9 | 49.6 | –
30 µM | 64 | 29 | – | – | – | – | – | -0.06

Conditions | drug sensitivity score | relative viability EC50 [nM]
Caco-2 [13] | 6.4 | –
Caco-2 [17] | – | 774
Calu-3 [11] | 11.7 | –
Calu-3 [15] | – | 497
HepG2 [12] | 2.1 | –
U2OS [10] | 2.1 | –
Vero E6 [9] | 5.4 | –
Vero E6 [18] | – | 1170

drug-induced phospholipidosis [%], A549-ACE2
Conditions | 0.3 µM | 0.833333 µM | 3.33333 µM | 6.66667 µM | 10 µM | 30 µM
24 h | 1.6 | -1.36 | 0.82 | 3.17 | 1.18 | 9.67
48 h | -2.83 | -1.17 | -1.23 | -4.71 | -0.44 | –
72 h | 2.41 | -2.62 | -2.62 | -1.43 | 0.652 | –

C=C1CC[C@@H]2[C@](C)(CO)[C@H](O)CC[C@@]2(C)[C@@H]1C/C=C1/C(=O)OC[C@H]1O [andrographolide]
Conditions | SARS-CoV-2 infection rate, [7] [%] | cell count, [8] [%] | cell viability, Caco-2 [6] [%] | cell viability, Calu-3 [4] [%] | cell viability, HepG2 [5] [%] | cell viability, U2OS [3] [%] | cell viability, Vero E6 [2] [%] | morphology score, [1]
1 nM | – | – | 99.1 | 90.5 | 102 | 103 | 100 | –
10 nM | – | – | 104 | 94.3 | 99.2 | 95.7 | 104 | –
0.1 µM | 103 | 101 | – | – | – | – | – | -0.02
100 nM | – | – | 101 | 105 | 109 | 102 | 98 | –
0.3 µM | 110 | 101 | – | – | – | – | – | -0.22
1 µM | 111 | 96 | – | – | – | – | – | -0.15
1000 nM | – | – | 94.3 | 106 | 102 | 96.2 | 112 | –
3 µM | 102 | 102 | – | – | – | – | – | -0.17
10000 nM | – | – | 66 | 112 | 66.5 | 22.9 | 73.8 | –

Conditions | drug sensitivity score | relative viability EC50 [nM]
Caco-2 [13] | 2.5 | –
Calu-3 [11] | 0 | –
Calu-3 [15] | – | > 10000
HepG2 [12] | 1.4 | –
U2OS [10] | 4.8 | –
U2OS [14] | – | 2780
Vero E6 [9] | 0.7 | –

drug-induced phospholipidosis [%], A549-ACE2
Conditions | 0.3 µM | 0.833333 µM | 3.33333 µM | 6.66667 µM | 10 µM | 30 µM
24 h | 4.15 | -1.47 | 2.19 | 13.3 | 16 | 25
48 h | 3.38 | 2.04 | 3.48 | 15.8 | 19.9 | –
72 h | 0.729 | -0.638 | -0.912 | 5.37 | 8.38 | –
